Test results taken from ChEMBL document CHEMBL1201862, “PubChem BioAssay data set” (2004).
The source made the active and inactive calls.

How the values were obtained:
[1] = luciferase reporter signal suppression in cells – H4 neuroglioma cells, luminescence, dose response (AID 1990); type: functional, cell-based
[2] = Luminescence Cell-Based Dose Response HTS to Identify Inhibitors of 5'UTR Stem-Loop Driven Prion Protein mRNA Translation in H4 Neuroglioblastoma Cells. [Related pubchem assays: 1827 (Project Summary), 1813 (Primary HTS)]; type: functional
[3] = alpha-synuclein stem-loop luciferase translation blockers – H4 neuroglioma cells, luminescence, confirmation (AID 1988); type: functional, cell-based
INS1 = assay: INS-1E survival protection against cytokine death – cell-based, luminescence, retest, dose response (AID 449756); type: functional; conditions: Rattus norvegicus;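 further: cell death triggered by IL-1 beta plus TNF-alpha plus IFN-gamma mixture; protective hits raise ATP signal compared with cytokine alone wells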
Cytochrome P450 2D6 = Cytochrome P450 2D6 (Homo sapiens, UniProt P10635);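 further: CYP2D6 member of a cytochrome P450 panel assay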
Cytochrome P450 2D6, sequence (P10635 whole entry): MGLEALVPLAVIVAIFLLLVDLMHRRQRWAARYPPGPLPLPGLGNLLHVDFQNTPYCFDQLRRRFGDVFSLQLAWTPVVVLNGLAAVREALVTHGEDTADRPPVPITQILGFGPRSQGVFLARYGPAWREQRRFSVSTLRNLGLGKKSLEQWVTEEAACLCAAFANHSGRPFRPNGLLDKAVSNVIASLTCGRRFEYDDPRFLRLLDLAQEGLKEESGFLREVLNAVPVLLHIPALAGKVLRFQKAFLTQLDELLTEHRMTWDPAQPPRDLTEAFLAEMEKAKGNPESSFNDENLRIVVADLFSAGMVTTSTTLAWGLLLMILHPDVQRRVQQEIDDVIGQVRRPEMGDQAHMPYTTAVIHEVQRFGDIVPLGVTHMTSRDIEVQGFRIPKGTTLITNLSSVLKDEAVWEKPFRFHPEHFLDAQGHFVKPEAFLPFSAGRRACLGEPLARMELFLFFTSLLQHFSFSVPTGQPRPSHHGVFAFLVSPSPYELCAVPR

Cytochrome P450 2C9 = Cytochrome P450 2C9 (Homo sapiens, UniProt P11712)
Cytochrome P450 2C9, sequence (P11712 whole entry): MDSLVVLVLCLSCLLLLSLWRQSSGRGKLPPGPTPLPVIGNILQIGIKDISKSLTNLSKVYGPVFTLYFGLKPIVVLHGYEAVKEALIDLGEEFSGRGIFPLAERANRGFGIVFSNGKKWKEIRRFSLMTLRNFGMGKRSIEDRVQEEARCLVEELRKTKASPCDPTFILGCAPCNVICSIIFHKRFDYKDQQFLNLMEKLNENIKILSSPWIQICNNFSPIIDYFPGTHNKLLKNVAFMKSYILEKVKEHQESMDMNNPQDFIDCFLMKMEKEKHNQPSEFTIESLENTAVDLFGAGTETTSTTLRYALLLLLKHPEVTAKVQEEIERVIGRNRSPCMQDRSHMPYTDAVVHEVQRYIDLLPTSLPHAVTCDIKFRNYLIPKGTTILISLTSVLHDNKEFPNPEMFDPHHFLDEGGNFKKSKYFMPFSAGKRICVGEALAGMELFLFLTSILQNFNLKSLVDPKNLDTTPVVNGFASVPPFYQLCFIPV

Fatty acid synthase [4] = biological target: T1, Fatty acid synthase (Homo sapiens, UniProt P49327); assay: inhibition of human FAS-TE enzyme activity – biochemical, endpoint fluorescence intensity, uHTS hits, dose response (AID 624327); type: functional;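 further: fluorescence from hydrolysis of an O-methyl fluorescein acyl ester substrate by the enzyme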
T1 sequence (P49327 whole entry): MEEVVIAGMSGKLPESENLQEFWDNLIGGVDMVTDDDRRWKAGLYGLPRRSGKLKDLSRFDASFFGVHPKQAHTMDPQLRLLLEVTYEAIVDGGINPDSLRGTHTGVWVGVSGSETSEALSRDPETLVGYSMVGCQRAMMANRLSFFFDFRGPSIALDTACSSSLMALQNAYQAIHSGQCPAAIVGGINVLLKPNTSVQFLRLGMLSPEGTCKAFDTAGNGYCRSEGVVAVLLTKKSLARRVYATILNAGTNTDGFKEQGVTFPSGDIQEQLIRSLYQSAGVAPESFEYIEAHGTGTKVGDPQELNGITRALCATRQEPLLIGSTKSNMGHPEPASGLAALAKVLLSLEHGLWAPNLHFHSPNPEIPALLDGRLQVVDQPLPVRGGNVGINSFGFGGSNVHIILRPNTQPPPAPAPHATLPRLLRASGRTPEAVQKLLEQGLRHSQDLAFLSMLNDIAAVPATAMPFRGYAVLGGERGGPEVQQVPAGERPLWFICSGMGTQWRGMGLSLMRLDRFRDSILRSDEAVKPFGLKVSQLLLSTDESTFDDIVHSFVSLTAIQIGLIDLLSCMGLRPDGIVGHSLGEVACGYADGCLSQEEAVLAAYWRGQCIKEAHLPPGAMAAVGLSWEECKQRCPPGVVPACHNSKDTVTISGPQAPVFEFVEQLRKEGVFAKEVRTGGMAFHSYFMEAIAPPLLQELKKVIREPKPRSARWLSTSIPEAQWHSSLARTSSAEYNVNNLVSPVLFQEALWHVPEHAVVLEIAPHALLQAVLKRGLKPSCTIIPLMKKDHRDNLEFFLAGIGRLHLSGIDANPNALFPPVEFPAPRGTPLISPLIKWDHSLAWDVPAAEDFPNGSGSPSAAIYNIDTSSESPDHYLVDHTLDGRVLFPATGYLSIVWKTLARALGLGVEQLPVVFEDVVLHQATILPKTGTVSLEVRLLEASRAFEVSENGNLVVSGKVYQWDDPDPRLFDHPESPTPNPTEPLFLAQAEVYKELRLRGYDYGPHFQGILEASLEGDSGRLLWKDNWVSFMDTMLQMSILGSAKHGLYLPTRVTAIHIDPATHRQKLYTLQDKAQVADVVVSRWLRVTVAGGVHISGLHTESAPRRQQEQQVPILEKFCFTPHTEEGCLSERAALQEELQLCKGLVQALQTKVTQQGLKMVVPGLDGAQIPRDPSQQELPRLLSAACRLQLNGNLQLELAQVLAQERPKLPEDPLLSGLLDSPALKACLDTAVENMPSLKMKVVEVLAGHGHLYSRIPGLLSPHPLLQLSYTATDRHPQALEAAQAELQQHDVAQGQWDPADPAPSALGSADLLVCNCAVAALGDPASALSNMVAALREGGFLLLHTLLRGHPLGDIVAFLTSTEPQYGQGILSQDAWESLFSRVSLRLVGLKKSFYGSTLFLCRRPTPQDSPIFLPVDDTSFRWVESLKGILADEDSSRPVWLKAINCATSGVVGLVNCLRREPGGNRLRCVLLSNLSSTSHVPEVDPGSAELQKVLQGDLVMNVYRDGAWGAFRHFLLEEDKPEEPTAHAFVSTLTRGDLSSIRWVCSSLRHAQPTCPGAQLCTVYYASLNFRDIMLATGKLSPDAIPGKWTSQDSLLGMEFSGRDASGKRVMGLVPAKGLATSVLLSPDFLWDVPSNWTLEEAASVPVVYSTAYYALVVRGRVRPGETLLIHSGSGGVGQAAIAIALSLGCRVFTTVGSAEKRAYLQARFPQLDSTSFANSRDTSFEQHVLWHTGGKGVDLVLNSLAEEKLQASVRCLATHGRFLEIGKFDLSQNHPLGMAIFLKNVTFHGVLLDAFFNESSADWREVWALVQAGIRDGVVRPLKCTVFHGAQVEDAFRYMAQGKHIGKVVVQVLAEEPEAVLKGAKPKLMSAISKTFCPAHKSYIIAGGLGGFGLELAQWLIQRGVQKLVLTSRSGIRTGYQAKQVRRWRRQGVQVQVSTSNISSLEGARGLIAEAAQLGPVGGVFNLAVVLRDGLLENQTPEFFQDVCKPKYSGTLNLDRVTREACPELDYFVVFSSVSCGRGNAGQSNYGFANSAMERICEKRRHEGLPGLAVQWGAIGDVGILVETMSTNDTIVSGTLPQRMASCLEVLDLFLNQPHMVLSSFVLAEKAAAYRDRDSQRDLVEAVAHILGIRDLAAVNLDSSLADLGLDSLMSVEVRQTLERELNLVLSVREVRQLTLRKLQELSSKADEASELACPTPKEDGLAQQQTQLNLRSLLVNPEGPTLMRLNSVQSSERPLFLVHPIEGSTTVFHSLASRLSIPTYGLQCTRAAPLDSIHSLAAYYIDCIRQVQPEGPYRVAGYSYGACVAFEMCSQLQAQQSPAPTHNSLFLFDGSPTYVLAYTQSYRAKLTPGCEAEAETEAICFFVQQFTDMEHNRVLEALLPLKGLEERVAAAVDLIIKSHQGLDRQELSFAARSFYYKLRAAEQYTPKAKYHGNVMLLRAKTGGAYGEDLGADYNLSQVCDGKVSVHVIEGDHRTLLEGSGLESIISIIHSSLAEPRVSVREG

Fatty acid synthase [5] = biological target: T1, Fatty acid synthase; assay: inhibition of human FAS-TE enzyme activity – biochemical, kinetic fluorescence intensity, dose response (AID 624326); type: functional;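 further: rate of fluorescence rise from hydrolysis of a fluorogenic O-methyl fluorescein ester substrate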
Cytochrome P450 3A4 = Cytochrome P450 3A4 (Homo sapiens, UniProt P08684);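 further: CYP3A4 tested as one member of a cytochrome P450 panel screen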
Cytochrome P450 3A4, sequence (P08684 whole entry): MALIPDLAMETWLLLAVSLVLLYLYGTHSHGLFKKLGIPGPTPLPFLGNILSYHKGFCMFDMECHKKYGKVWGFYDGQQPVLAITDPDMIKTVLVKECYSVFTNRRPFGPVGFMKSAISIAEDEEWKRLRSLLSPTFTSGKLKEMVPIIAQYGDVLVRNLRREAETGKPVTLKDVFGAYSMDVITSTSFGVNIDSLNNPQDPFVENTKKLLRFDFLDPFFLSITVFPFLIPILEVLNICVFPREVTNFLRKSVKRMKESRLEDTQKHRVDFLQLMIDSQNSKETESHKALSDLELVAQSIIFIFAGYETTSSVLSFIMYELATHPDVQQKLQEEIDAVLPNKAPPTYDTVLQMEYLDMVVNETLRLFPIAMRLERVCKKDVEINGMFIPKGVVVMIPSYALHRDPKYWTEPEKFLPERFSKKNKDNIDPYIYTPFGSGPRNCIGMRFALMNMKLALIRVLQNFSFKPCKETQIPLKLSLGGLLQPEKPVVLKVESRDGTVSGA

H9c2 = assay: cells; type: functional, cell-based; conditions: Rattus norvegicus, H9c2, Myocardium
[6] = viability of uninfected HEp-2 cells – cell-based, HTS, cytotoxicity control for RSV inhibitor project, dose response (AID 2410); type: functional; conditions: human respiratory syncytial virus
[7] = system: Streptococcus sp. 'group A'; assay: Streptococcus pyogenes SK(-)GAS viability under kanamycin – luminescence, BacTiterGlo, confirmation, counter-screen for streptokinase expression inhibitor project, dose response (AID 1900); type: functional, organism-based
Streptokinase A = biological target: T2, Streptokinase A (Streptococcus pyogenes serotype M1, UniProt P10520); assay: viability-normalized secreted streptokinase activity reduction – plasminogen activation absorbance, OD405, dose response (AID 1914); type: functional, Streptococcus pyogenes M1 GAS;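 further: secreted streptokinase activity via plasminogen activation per viability signal from cell pellet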
T2 sequence (P10520 whole entry): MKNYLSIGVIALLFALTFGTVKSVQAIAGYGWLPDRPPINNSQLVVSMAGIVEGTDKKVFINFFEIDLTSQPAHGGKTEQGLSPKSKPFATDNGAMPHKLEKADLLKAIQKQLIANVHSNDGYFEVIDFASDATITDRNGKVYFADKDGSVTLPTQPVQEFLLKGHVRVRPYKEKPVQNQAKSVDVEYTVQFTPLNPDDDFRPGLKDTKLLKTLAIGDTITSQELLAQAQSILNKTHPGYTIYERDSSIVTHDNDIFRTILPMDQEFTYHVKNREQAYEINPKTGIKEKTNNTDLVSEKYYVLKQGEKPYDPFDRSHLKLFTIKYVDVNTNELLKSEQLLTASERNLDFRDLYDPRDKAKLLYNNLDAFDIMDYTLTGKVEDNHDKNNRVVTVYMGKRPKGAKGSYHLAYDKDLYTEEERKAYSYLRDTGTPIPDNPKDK

Streptococcus = assay: GAS UMAA2166 growth inhibition – luminescence, BacTiterGlo, counter-screen for streptokinase expression inhibitor project, dose response (AID 1915); type: functional, organism-based;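 further: potency for reduction of bacterial viability or growth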
[8] = reduction of Shn3 3'UTR-driven luciferase in osteoblasts – cell-based, Clone20 osteoblasts, firefly luciferase, cherry-picked, dose response (AID 624132); type: functional;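 further: firefly luciferase luminescence from reporter carrying the Shn3 3'UTR in osteoblasts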
[9] = non-specific 3'UTR reporter inhibition in Clone20-Shn3RL – cell-based, Renilla luciferase, cherry-picked, counter-screen for Shn3 inhibitor project, dose response (AID 624133); type: functional
Protein RecA = biological target: T3, Protein RecA (Mycobacterium tuberculosis, UniProt P9WHJ3); assay: Fluorescence Cell-Free Homogeneous Dose Retest to Identify Inhibitors of RecA-Intein Splicing Activity. [Related pubchem assays (depositor defined):AID2097, AID2223, AID489010, AID492950]; type: functional
T3 sequence (P9WHJ3 whole entry): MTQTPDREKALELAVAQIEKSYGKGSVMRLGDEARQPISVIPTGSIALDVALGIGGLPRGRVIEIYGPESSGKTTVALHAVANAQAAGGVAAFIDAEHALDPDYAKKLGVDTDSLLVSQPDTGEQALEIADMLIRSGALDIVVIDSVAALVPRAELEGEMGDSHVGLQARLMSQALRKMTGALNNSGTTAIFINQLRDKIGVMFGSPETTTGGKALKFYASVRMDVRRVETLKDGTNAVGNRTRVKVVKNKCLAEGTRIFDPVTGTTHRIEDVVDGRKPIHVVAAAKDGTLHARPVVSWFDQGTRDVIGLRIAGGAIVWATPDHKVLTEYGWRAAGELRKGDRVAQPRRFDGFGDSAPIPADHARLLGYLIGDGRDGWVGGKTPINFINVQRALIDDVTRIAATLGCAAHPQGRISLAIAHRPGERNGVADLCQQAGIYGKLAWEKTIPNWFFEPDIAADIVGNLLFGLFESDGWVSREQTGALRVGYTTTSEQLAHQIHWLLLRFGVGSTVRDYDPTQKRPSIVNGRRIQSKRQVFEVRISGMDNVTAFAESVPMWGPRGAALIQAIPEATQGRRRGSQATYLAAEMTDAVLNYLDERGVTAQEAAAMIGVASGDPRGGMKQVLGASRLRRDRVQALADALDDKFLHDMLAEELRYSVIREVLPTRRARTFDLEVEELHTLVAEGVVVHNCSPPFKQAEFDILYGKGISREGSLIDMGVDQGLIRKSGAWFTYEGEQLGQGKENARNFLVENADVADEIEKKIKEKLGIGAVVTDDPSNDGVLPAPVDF

## FC(F)(F)c1nc2ccccc2n2c(-c3ccc(Cl)cc3)nnc12
[1]
  EC50: 9.07 µM (active)
[2]
  EC50: 9.21 µM (active)
[3]
  EC50: 8.92 µM (active)
INS1
  AC50: 6.4 µM (active)

## C=CCN(CC=C)C(=O)C(=O)c1cc(C)n(-c2ccc([N+](=O)[O-])cc2)c1C
Cytochrome P450 2D6
  AC50: 3.98 µM (inconclusive)
Cytochrome P450 2C9
  AC50: 15.8 µM (inconclusive)

## CCN1C(=O)[C@H]2[C@@H](c3ccc(C)cc3)N3C(=O)N(c4cccc(Cl)c4)C(=O)[C@@]3(Cc3ccc(Cl)cc3)[C@H]2C1=O
Fatty acid synthase [4]
  IC50: 12 µM (active)
Fatty acid synthase [5]
  IC50: 16.1 µM (active)

## COc1ccc(-c2nn(-c3ccccc3)cc2C(=O)OCC(=O)c2ccc(C)c([N+](=O)[O-])c2)cc1
INS1
  AC50: 0.97 µM (active)

## Cc1c(N2CCCC2)cc2c(c1NC(=O)c1ccccc1Cl)C(C)(C)CC2(C)C
Cytochrome P450 2D6
  AC50: 3.16 µM (inconclusive)
Cytochrome P450 3A4
  AC50: 631 nM (inconclusive)

## COc1cccc(-c2nnc3sc(-c4ccccn4)nn23)c1
H9c2
  IC50: > 79 µM (inactive)

## Oc1nc2c(c3c1CCCC3)CCCC2
H9c2
  IC50: > 79 µM (inactive)

## CC1CN(c2ccc([N+](=O)[O-])cc2C#N)CC(C)O1 (stereo not given)
[6]
  CC50: 34.9 µM (active)

## O=C(COC(=O)c1cc(-c2cccnc2)nc2ccccc12)Nc1ccc(F)cc1F
H9c2
  IC50: 13.8 µM (active)

## Cc1cccc(NC(=O)c2cc(-c3ccco3)nc3ccccc23)n1
H9c2
  IC50: > 79 µM (inactive)

## O=C(NC(=S)N1CCN(C(c2ccccc2)c2ccccc2)CC1)c1ccc(S(=O)(=O)N2CCOCC2)cc1
[7]
  EC50: 1.14 µM (active)
Streptokinase A
  EC50: > 150 µM (not active)
Streptococcus
  EC50: 108 µM (active)

## CC(C)(C)c1ccc(Cn2ccc(-c3ccc4c(c3)OCO4)n2)cc1
[7]
  EC50: 9.62 µM (active)
Streptokinase A
  EC50: > 150 µM (not active)
Streptococcus
  EC50: 79.9 µM (active)

## CCn1c(SCC(=O)Nc2ncc(C(F)(F)F)cc2Cl)nnc1-c1cccc(C)c1
Fatty acid synthase [4]
  IC50: 3.66 µM (active)
Fatty acid synthase [5]
  IC50: 3.94 µM (active)

## CC[C@@]12C(=O)N(c3cccc(Br)c3)C(=O)N1[C@H](c1ccc(F)cc1)[C@@H]1C(=O)N(C3CCCCC3)C(=O)[C@@H]12
[6]
  CC50: 41.1 µM (active)

## O=C(NCc1ccc2c(c1)OCO2)c1cc([N+](=O)[O-])ccc1N1CCCCC1
Fatty acid synthase [4]
  IC50: 10.5 µM (active)
Fatty acid synthase [5]
  IC50: 5.03 µM (active)

## CC(C)(C)C(=O)N1N=C(c2ccc(NS(C)(=O)=O)cc2)CC1c1cccs1 (stereo not given)
[7]
  EC50: 6.62 µM (active)
Streptokinase A
  EC50: > 150 µM (not active)
Streptococcus
  EC50: 12.4 µM (active)

## COc1ccc(-c2[nH]c(-c3ccc(C)cc3)nc2SCC(=O)NC2CCCC2)cc1
[6]
  CC50: 38.9 µM (active)

## Cc1cc(C)n(-c2nc(NCCO)c3c4c(sc3n2)CCCC4)n1
INS1
  AC50: 5.3 µM (active)

## O=C(CSc1ccc(-c2ccc(Cl)cc2)nn1)NC1CCCC1
[7]
  EC50: > 150 µM (not active)
Streptokinase A
  EC50: > 150 µM (not active)
Streptococcus
  EC50: > 150 µM (not active)

## COc1ccccc1NC(=O)CSc1ccc2nnc(-c3ccc(C)cc3)n2n1
H9c2
  IC50: > 79 µM (inactive)

## COc1cc(OC)c(NC(=O)c2sc3ncn(CC(=O)N4CCN(c5ccccn5)CC4)c(=O)c3c2C)cc1Cl
[7]
  EC50: 11.6 µM (active)
Streptokinase A
  EC50: > 150 µM (not active)
Streptococcus
  EC50: 86.6 µM (active)

## CCOC(=O)N1CCC(n2c(SCC(=O)N3CCC(C)CC3)nc3ccccc3c2=O)CC1
H9c2
  IC50: > 79 µM (inactive)

## O=C(/C=C/c1cccs1)c1cc(Br)ccc1OC(=O)N1CCOCC1
[6]
  CC50: 18.7 µM (active)

## CCc1ccc(/C=C2\SC(N3CCCC3)=NC2=O)cc1
[6]
  CC50: > 50 µM (active)

## Cc1[nH]c2ccccc2c1N=Nc1ccc(F)cc1
[6]
  CC50: 17.2 µM (active)

## C[C@@H](C(=O)Nc1ccc2ccccc2c1)[C@H]1C[C@]1(C)[C@H](NS(=O)(=O)c1ccccc1)c1ccccc1
[6]
  CC50: 36.4 µM (active)

## COc1cc(CCNc2ccc3nnc(-c4ccccc4)n3n2)cc(OC)c1OC
H9c2
  IC50: > 79 µM (inactive)

## CCOc1ccc(NC(=O)CN(c2ccc([N+](=O)[O-])cc2)S(=O)(=O)c2ccccc2)cc1
Fatty acid synthase [4]
  IC50: 10.5 µM (active)
Fatty acid synthase [5]
  IC50: 7.65 µM (active)

## COc1ccc(/C=C/C(=O)c2ccccc2O)cc1CN1CCOCC1
H9c2
  IC50: > 79 µM (inactive)

## COc1ccc([N+](=O)[O-])cc1NC(=O)c1ccc(N(Cc2ccccc2C)S(C)(=O)=O)cc1
Fatty acid synthase [4]
  IC50: 9.88 µM (active)
Fatty acid synthase [5]
  IC50: 6.91 µM (active)

## Cc1ccc2nc(-c3ccccc3)cc(C(=O)NNC(=O)c3csc(N4CCOCC4)n3)c2c1
H9c2
  IC50: > 79 µM (inactive)

## CCCC(=O)Nc1sc2c(c1C(=O)OC)C(C(=O)OC)CC2 (stereo not given)
[6]
  CC50: 31.6 µM (active)

## CCC(=O)Nc1ccc(Nc2nc(C)c([N+](=O)[O-])c(Nc3ccc(NC(=O)CC)cc3)n2)cc1
[7]
  EC50: 0.487 µM (active)
Streptokinase A
  EC50: > 150 µM (not active)
Streptococcus
  EC50: 49.3 µM (active)

## CCOC(=O)C1CCN(C(=O)c2ccc(OCC(=O)Nc3cccc(C(F)(F)F)c3)c(OC)c2)CC1
[8]
  AC50: 1.75 µM (active)
[9]
  AC50: 4.69 µM (active)

## O=C(Cc1ccc(S(=O)(=O)N2CCOCC2)s1)N1CCN(S(=O)(=O)c2ccccc2[N+](=O)[O-])CC1
Fatty acid synthase [4]
  IC50: 0.241 µM (active)
Fatty acid synthase [5]
  IC50: 3.36 µM (active)

## CC(=O)c1c(C)n(-c2cccc(Cl)c2)c2ccc(O)cc12
H9c2
  IC50: 10.4 µM (active)

## COc1ccc(C(C(=O)NCc2ccccc2)N(Cc2ccco2)C(=O)c2snc(C(N)=O)c2N)cc1 (stereo not given)
H9c2
  IC50: > 79 µM (inactive)

## COc1ccc(/C=N/NC(=O)c2cc(C(C)(C)C)[nH]n2)cc1COc1ccc(F)cc1F
[7]
  EC50: 6.95 µM (active)
Streptokinase A
  EC50: > 150 µM (not active)
Streptococcus
  EC50: 11.7 µM (active)

## CCOC(=O)c1ccc(NC(=O)CC2SC(N/N=C/c3c[nH]c4ccccc34)=NC2=O)cc1 (stereo not given)
[7]
  EC50: 3.35 µM (active)
Streptokinase A
  EC50: > 150 µM (not active)
Streptococcus
  EC50: > 150 µM (not active)

## Cc1[nH]c2ccccc2c1/C=N/NC(=O)c1cc(-c2cccs2)[nH]n1
H9c2
  IC50: > 79 µM (inactive)

## CCN(CC)C(=O)C1=C(C)N(Cc2ccc(F)cc2)C(=O)C(CC(=O)NC(c2ccccc2)c2ccccc2)C1 (stereo not given)
Fatty acid synthase [4]
  IC50: 9.6 µM (active)
Fatty acid synthase [5]
  IC50: 7.98 µM (active)

## Fc1c(F)c(F)c(N/N=C/c2c[nH]c3ccccc23)c(F)c1F
Fatty acid synthase [4]
  IC50: 11.5 µM (active)
Fatty acid synthase [5]
  IC50: 12.4 µM (active)

## Cc1ccccc1/N=C1\C(Cl)=C(O)OC1OC(=O)c1ccco1 (stereo not given)
Protein RecA
  EC50: 11.4 µM (active)
Fatty acid synthase [4]
  IC50: 3.24 µM (active)
Fatty acid synthase [5]
  IC50: 4.35 µM (active)
